Assay results published in US9587005B2 (priority 2010, dated 2017).
Where two headings read alike, the source gives them in different places. *1 amine or outer side, *2 acyl side, *3 side chain or, on linkers, in order; H or OH if unused. Bridges are numbered along the chain shown (N, C = ends). Where no end group is shown, it is not given here. Side-chain parts run from the residue outwards. [ ]: non-standard residue; d: D form. The star is where a group is joined. PEG8 = NCCOCCOCCOCCOCCOCCOCCOCCOCCC(=O)O; Phe(4-NH2) = Nc1ccc(C[C@H](N)C(=O)O)cc1; γGlu = O=C(O)[C@H](CCC(=O)[*:2])N[*:1]; X6 = CCCCCCCCCCCCCCCCC(CC(=O)*)C(=O)O; X3 = CCCCCCCCCCCCCCC(CC(=O)*)C(=O)O; Palmitoyl = CCCCCCCCCCCCCCCC(=O)*; PEG4 = NCCOCCOCCOCCOCCC(=O)O; Aib = CC(C)(N)C(=O)O

Tests used:
Type in all cases: cell-based
GIP receptor = molecular target: T1, GIP receptor (Homo sapiens, UniProt P48546); assay: cAMP induction, firefly luciferase reporter assay in HEK293 cells co-transfected with GIP receptor; details: for GIPR relative activity: Table 3, relative to the activity of the native hormone
T1 sequence (P48546 22-466): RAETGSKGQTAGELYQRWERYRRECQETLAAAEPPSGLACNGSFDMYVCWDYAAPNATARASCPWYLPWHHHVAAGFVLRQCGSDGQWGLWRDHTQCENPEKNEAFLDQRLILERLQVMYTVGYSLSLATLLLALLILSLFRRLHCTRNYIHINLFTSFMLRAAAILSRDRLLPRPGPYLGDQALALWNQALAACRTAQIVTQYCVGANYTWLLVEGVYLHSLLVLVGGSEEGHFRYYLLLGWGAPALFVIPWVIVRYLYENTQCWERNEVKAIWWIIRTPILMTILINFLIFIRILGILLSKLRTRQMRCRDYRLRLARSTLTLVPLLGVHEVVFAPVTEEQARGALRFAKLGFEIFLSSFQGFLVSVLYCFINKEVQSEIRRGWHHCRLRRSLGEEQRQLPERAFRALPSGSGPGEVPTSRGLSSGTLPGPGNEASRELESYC

glucagon receptor = molecular target: T2, glucagon receptor (Homo sapiens, UniProt P47871); assay: cAMP induction, firefly luciferase reporter assay in HEK293 cells co-transfected with glucagon receptor; details: for GR relative activity: Table 3, relative to the activity of the native hormone
T2 construct: expressed in transfected cells; host or cells: HEK293
Source text: (§1) This example describes an exemplary method of testing the biological activity of the peptides of the present disclosures, which method involves assaying cAMP synthesis.

GLP-1 receptor = molecular target: T3, GLP-1 receptor (Homo sapiens, UniProt P43220); assay: cAMP induction, firefly luciferase reporter assay in HEK293 cells co-transfected with GLP-1 receptor; details: for GLP-1R relative activity: Table 3, relative to the activity of the native hormone
T3 construct: expressed in transfected cells; host or cells: HEK293
Source text: as §1

[1] = Table 3, Example 8, read-out: GIPR EC50
[2] = Table 3, Example 8, read-out: GLP-1R EC50
[3] = GIP Receptor EC50, Table 11, Example 18
[4] = Glucagon Receptor EC50, Table 11, Example 18
[5] = GLP-1 Receptor EC50, Table 11, Example 18
[6] = EC50 (nM) at GIP receptor, Table 16, Example 24
[7] = EC50 (nM) at glucagon receptor, Table 16, Example 24
[8] = EC50 (nM) at GLP-1 receptor, Table 16, Example 24

T2 sequence (P47871 26-477): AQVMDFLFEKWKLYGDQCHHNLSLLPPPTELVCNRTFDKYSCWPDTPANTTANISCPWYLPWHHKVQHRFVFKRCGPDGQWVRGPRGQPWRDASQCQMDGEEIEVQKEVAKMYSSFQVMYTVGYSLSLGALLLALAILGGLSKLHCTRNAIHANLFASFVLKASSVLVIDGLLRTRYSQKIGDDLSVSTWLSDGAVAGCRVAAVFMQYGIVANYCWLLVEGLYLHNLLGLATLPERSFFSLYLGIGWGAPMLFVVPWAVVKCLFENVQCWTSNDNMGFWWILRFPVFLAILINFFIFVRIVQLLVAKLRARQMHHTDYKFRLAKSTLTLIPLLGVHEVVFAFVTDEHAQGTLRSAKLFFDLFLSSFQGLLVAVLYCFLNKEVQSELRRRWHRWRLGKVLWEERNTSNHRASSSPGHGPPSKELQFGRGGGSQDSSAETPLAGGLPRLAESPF
T3 sequence (P43220 24-463): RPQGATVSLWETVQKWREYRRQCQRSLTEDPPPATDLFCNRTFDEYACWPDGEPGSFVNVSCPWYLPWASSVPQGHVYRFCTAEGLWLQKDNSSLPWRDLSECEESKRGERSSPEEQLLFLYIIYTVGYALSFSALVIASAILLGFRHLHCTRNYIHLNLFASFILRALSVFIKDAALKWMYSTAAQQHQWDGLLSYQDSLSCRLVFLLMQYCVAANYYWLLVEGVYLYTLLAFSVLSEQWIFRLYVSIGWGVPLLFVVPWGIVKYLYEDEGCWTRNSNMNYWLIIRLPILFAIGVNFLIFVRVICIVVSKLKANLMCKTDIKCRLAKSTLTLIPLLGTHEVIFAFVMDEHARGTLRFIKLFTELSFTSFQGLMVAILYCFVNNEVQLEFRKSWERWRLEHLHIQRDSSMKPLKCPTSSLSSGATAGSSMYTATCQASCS

Example 8 peptide: Tyr1, AIB2, Glu16/Lys20 lactam, Leu-Ala-Gly 27-29, GPSSGAPPPS 30-39, or a peptide lacking a lactam [mt-225] (Y[Aib]QGTFTSDYSIYLDEQAAKEFVNWLLAGGPSSGAPPPSK([Ala-Cys(PEG 40 kDa)-Ac]); lactam 16-20; not fully specified (C-terminus))
GIPR relative activity (GIP receptor): 0.90% | GR relative activity (glucagon receptor): 1.99% | GLP-1R relative activity (GLP-1 receptor): 29.59%

Example 8 peptide: Tyr1, AIB2, Glu16/Lys20 lactam, Leu-Ala-Gly 27-29, GPSSGAPPPS 30-39, or a peptide lacking a lactam [mt-226]
EC50 (GIP receptor; [1]): 1.47 nM | GIPR relative activity (GIP receptor): 1.16% | GR relative activity (glucagon receptor): 1.56% | EC50 (GLP-1 receptor; [2]): 0.097 nM | GLP-1R relative activity (GLP-1 receptor): 29.90%

Example 8 peptide: Tyr1, AIB2, Glu16/Lys20 lactam, Leu-Ala-Gly 27-29, GPSSGAPPPS 30-39, or a peptide lacking a lactam [mt-227] (Y[Aib]QGTFTSDYSIYLDEQAAKEFVNWLLAGGPSSGAPPPSK([Arg-Cys(PEG 40 kDa)-Ac]); lactam 16-20; not fully specified (C-terminus))
GIPR relative activity (GIP receptor): 1.29% | GR relative activity (glucagon receptor): 1.27% | GLP-1R relative activity (GLP-1 receptor): 36.25%

Example 8 peptide: Tyr1, AIB2, Glu16/Lys20 lactam, Leu-Ala-Gly 27-29, GPSSGAPPPS 30-39, or a peptide lacking a lactam [mt-228]
EC50 (GIP receptor; [1]): 2.27 nM | GIPR relative activity (GIP receptor): 0.75% | GR relative activity (glucagon receptor): 1.01% | EC50 (GLP-1 receptor; [2]): 0.146 nM | GLP-1R relative activity (GLP-1 receptor): 19.86%

H-H[Aib]QGTFTSDYSKYLDERAAQDFVQWLLDGGPSSGAPPPSK([PEG4-γGlu-Palmitoyl])G-NH2 [SEQ ID NO: 158]
EC50 (GIP receptor; [3]): 0.005 nM | EC50 (glucagon receptor; [4]): 0.004 nM | EC50 (GLP-1 receptor; [5]): 0.003 nM

H[Aib]QGTFTSDYSKYLDERAAQDFVQWLLAGGPSSGAPPPSK([γGlu-γGlu-Palmitoyl])G-NH2 [SEQ ID NO: 203]
EC50 (GIP receptor; [6]): 0.007 nM | EC50 (glucagon receptor; [7]): 0.003 nM | EC50 (GLP-1 receptor; [8]): 0.001 nM

H[Aib]QGTFTSDYSKYLDERAAQDFVQWLLDGGPSSGAPPPSK(X3)G-NH2 [SEQ ID NO: 176]
EC50 (GIP receptor; GIP-1 Receptor EC50, Table 10, Example 16): 0.101 nM | EC50 (glucagon receptor): 0.012 nM | EC50 (GLP-1 receptor; GLP-1 Receptor EC50, Table 10, Example 16): 0.014 nM

H[Aib]QGTFTSDYSKYLDERAAQDFVQWLLDGGPSSGAPPPSK(X6)G-NH2 [SEQ ID NO: 156]
EC50 (GIP receptor; [3]): 0.006 nM | EC50 (glucagon receptor): 0.003 nM | EC50 (GLP-1 receptor; [5]): 0.003 nM

H[Aib]QGTFTSDYSKYLDERAAQDFVQWLLDGGPSSGAPPPSK([PEG8-γGlu-Palmitoyl])G-NH2 [SEQ ID NO: 159]
EC50 (GIP receptor; [3]): 0.002 nM | EC50 (glucagon receptor; [4]): 0.006 nM | EC50 (GLP-1 receptor; [5]): 0.005 nM

H[Aib]QGTFTSDYSKYLDERAAQDFVQWLLDGGPSSGAPPPSK([γGlu-γGlu-Palmitoyl])G-NH2 [SEQ ID NO: 89]
EC50 (GIP receptor; [6]): 0.028 nM | EC50 (glucagon receptor; [7]): 0.006 nM | EC50 (GLP-1 receptor; EC50 (nM) at GLP-1 receptor, Table 15, Example 23): 0.004 nM | EC50 (GLP-1 receptor; [8]): 0.005 nM

H[Aib]QGTFTSDYSKYLDERAAQDFVQWLLDGGPSSGAPPPS[Phe(4-NH2)](X6)G-NH2 [SEQ ID NO: 146]
EC50 (GIP receptor): 0.052 nM | EC50 (glucagon receptor): 0.007 nM | EC50 (GLP-1 receptor): 0.007 nM

H[Aib]QGTFTSDYSKYLDERAAQDFVQWLLDGGPSSGAPPPS[Phe(4-NH2)]([γGlu-γGlu-Palmitoyl])G-NH2 [SEQ ID NO: 145]
EC50 (GIP receptor): 0.017 nM | EC50 (glucagon receptor): 0.002 nM | EC50 (GLP-1 receptor): 0.002 nM
